{"source": "patent US9259409B2", "about": "“Compositions comprising a prostaglandin for treating neuropsychiatric conditions” (Inceptum Research & Therapeutics, Inc., priority 2011, dated 2016)", "key": {"U87MG cells": {"system": "U87MG cells", "assay": "Bipolar disorder biomarkers in glioblastoma U87 cell line (Western blot)", "format": "cell-based, human", "settings": "1 μM, 5 μM, 10 μM, vs untreated cells", "procedure": "Human embryonic kidney 293T (HEK293T) cells, U87MG astrocytoma and the human oligodendrocyte cell line MO3-13 were grown in Dubelco Minimal Eagle Media (DMEM) (Invitrogen, Carlsbad, Calif., USA) supplemented with 5% heat inactivated fetal bovine serum. Cells were grown to 70% confluence prior to treatment. HEK293T cells were treated individually with […] latanoprost, unoprostone, bimatoprost, fluprostenol, PGE2, and PGF2α in serum-free DMEM. Cells were exposed to drug for 3 hours at 37° C. in a 5% CO2 incubator. U87MG cells were grown to 70% confluence prior to treatment. Cells were treated with either DMSO vehicle (NT) or individually with 1, 5 and 10 μM latanoprost in DMEM lacking fetal bovine serum. Cells were exposed to treatments for 6 hours at 37° C. in a 5% CO2 incubator. The human oligodendrocyte cell line MO3-13 was grown and differentiated according to the methods described in McLaurin et al. (McLaurin, J., Trudel, G. C., Shaw, I. T., Antel, J. P., and Cashman, N. R., J. Neurobiol., 26: 283-293, 1995). On the third day of serum starvation, cells were treated with either DMSO vehicle (NT) or individually with 1, 5 and 10 μM latanoprost. Cells were exposed to treatments for 6 hours at 37° C. in a 5% CO2 incubator.\nFor detection of CREB and Serine-133 (S133)-phosphorylated CREB, serotonin receptor 5HT2A, TCF/LEF1, BDNF and TNF-total protein extracts were prepared from cell cultures using a sintered glass tissue homogenizer (Wheaton, Millville, N.J., USA) in phosphate-buffered saline (PBS), pH 7.5, 3M urea. For detection of β-catenin, cell cultures were washed with PBS, trypsinized, and pelleted at 1,000 rpm for 4 minutes. The cell pellets were washed and resuspended in cold hypotonic buffer consisting of 10 mM HEPES (pH 7.5), 1.5 mM MgCl2, 10 mM KCl, 0.5 mM DTT, and EDTA-free protease inhibitor (Roche, Laval, QC, Canada) in an ice bath for 5 minutes. The mixture was then homogenized using a dounce homogenizer and the cellular debris was pelleted by centrifugation at 4° C. Cytoplasmic fractions were recovered and used for assaying β-catenin.\nProtein concentrations were determined by the Peterson method (Peterson, Analyt. Biochem., 83: 346-356, 1977). Proteins (20 μg/lane) were loaded onto SDS-polyacrylamide gels and separated by electrophoresis. Proteins in gels were transferred onto PVDF membranes and processed for antibody reactions. To detect CREB, S133-phosphorylated CREB, and GAPDH loading controls, antibodies were diluted in 2% ECL Advance™ blocking reagent (GE Healthcare, Mississauga, ON, Canada) and solubilized in PBS-Tween20. Membranes were probed overnight at 4° C. Membranes were washed four times with PBS-Tween20 and labeled for 1 hour at 20° C. with secondary antibodies conjugated to horseradish peroxidase (HRP). The membrane was washed four more times with PBS-Tween20 and HRP activity was developed using Advance™ chemiluminescence (ECL) reagent (GE Healthcare, Mississauga, ON, Canada) according to the manufacturer's instructions. PVDF membranes were exposed to X-ray film.\nWe next examined the effects of latanoprost treatment (1 μM, 5 μM, and 10 μM) on other bipolar disorder biomarkers in glioblastoma U87 cell line."}, "[1]": {"system": "CREB transcription factor", "assay": "CREB transcription factor activation (S133 phosphorylation) in HEK293T cells (Western blot)", "format": "cell-based, human", "settings": "10 μM, vs DMSO-treated cells", "procedure": "Human embryonic kidney 293T (HEK293T) cells, U87MG astrocytoma and the human oligodendrocyte cell line MO3-13 were grown in Dubelco Minimal Eagle Media (DMEM) (Invitrogen, Carlsbad, Calif., USA) supplemented with 5% heat inactivated fetal bovine serum. Cells were grown to 70% confluence prior to treatment. […] Cells were exposed to drug for 3 hours at 37° C. in a 5% CO2 incubator. U87MG cells were grown to 70% confluence prior to treatment. Cells were treated with either DMSO vehicle (NT) or individually with 1, 5 and 10 μM latanoprost in DMEM lacking fetal bovine serum. Cells were exposed to treatments for 6 hours at 37° C. in a 5% CO2 incubator. The human oligodendrocyte cell line MO3-13 was grown and differentiated according to the methods described in McLaurin et al. (McLaurin, J., Trudel, G. C., Shaw, I. T., Antel, J. P., and Cashman, N. R., J. Neurobiol., 26: 283-293, 1995). On the third day of serum starvation, cells were treated with either DMSO vehicle (NT) or individually with 1, 5 and 10 μM latanoprost. Cells were exposed to treatments for 6 hours at 37° C. in a 5% CO2 incubator. […]\nProtein concentrations were determined by the Peterson method (Peterson, Analyt. Biochem., 83: 346-356, 1977). […]"}}}
{"smiles": "CC(C)OC(=O)CCC/C=C\\C[C@@H]1[C@@H](CC[C@@H](O)CCc2ccccc2)[C@H](O)C[C@@H]1O", "note": "[latanoprost, propan-2-yl-(Z)-7-[(1R,2R,3R,5S)-3,5-dihydroxy-2-[(3R)-3-hydroxy-5-phenylpentyl]cyclopentyl]-hept-5-enoate]", "values": [{"measurement": "levels of BDNF", "setting": "U87MG cells", "result": "increased levels"}, {"measurement": "levels of inflammatory cytokine TNF-α", "setting": "U87MG cells", "result": "reduced levels"}, {"measurement": "levels of serotonin receptor 5HT2A", "setting": "U87MG cells", "result": "increased levels"}, {"measurement": "levels of transcription factor TCF/LEF1", "setting": "U87MG cells", "result": "increased levels"}, {"measurement": "phosphorylation at Ser133 on CREB", "setting": "U87MG cells", "result": "increased levels"}, {"measurement": "total level of CREB protein", "setting": "U87MG cells", "result": "remaining relatively constant"}, {"measurement": "levels of S133 phosphorylated-CREB", "setting": "[1]", "result": "increased levels of 5133 phosphorylated-CREB"}]}
